Like-named read-outs stand apart in the source and are kept apart here.
How the values were obtained:
Human 11b-HSD1 = target: T1, Human 11b-HSD1 (Homo sapiens, UniProt P28845); test: Inhibition of cortisone-to-cortisol conversion in CHO-K1 cells over-expressing human 11b-HSD1 (HTRF cortisol assay); assay type: cell-based; settings: CHO-K1 cells over-expressing human 11b-HSD1, 160 nM cortisone, 3 hours, 37° C.
T1 construct: expressed in transfected cells
Source text: (§1) cDNA (human: Accession No. U12978.2; mouse: Accession No. NM_008288.2) coding the full-length amino acid sequence of 11β-HSD1 in a human and a mouse was incorporated into pMSCVpuro (from Clontech. Co. Ltd.), a vector of expressing a mammalian cell for the production of a retrovirus, and the resulting product was introduced into a GP2-293 cell (from Clontech Co. Ltd.), a retrovirus packing cell line together with pVSV-G vector (from Clontech Co. Ltd.) by using a Lipotamine plus reagent (from Invitrogen Co. Ltd.) in accordance with the method set forth in the appendix (by using HTRF cortisol assay kit from Cisbio assays Co., Ltd., catalog No. 62CO2PEB) and stabilized for 48 hours. Thereafter, viruses being obtained from those cells were used to infect CHO-K1 cell (from Korean Cell Line Bank, KCLB No. 10061) and in 24 hours, the cells were treated with 10 μg/ml pumycin (from Sigma Co. Ltd.) for two weeks to produce a stabilized cell system wherein each 11β-HSD1 in humans or in mice was over-expressed. When the cells being maintained, 5 μg/ml of puromycin was put into the medium and used (RPMI (Gibco), 37° C.). • Reference material: The EMBO Journal (2008) 27, 642-653
(§2) The obtained cells with 11b-HSD1 in a human and a mouse being over-expressed were sub-cultured in a 96-well plate with a cell number being 3×10^4 cells per well and stabilized for 24 hours [RPMI (Gibco), at 37° C., as being used in 5 days after thawing]. After a medium as diluted with DMSO including 160 nM of cortisone (from Sigma Co. Ltd.) and a test compound at a different concentration was put into each well in an amount of 200 ul, the well was cultured in a cell cultivator at 37° C. for 3 hours. 10 ul of the cultured solution was put into a 384 well plate and the amount of cortisol as generated was measured using a cortisol kit (from Cisbio international Co. Ltd, HTRF assay) in accordance with the method set forth in the appended manual.
(§3) As a control group, 160 nM of cortisone and 1% of DMSO were put into a corresponding well. The ground value was obtained from a well including only 160 nM of cortisone and 1% of DMSO without cells just like the control group. The calculation for a % inhibition level was made following the manual as appended. • Reference material: The Journal of Steroid Biochemistry and Molecular Biology, Volume 104, Issues 3-5, May 2007, Pages 123-129 • Bioorganic & Medicinal Chemistry Letters Volume 19, Issue 10, 15 May 2009, Pages 2674-2678
(§4) Like the analyzing method as stated above, the efficacy of inhibiting 11b-HSD1 was calculated as IC50 and the results are shown in Table 1: […]

11b-HSD1 = target: T2, 11b-HSD1 (Mus musculus, UniProt P50172); test: Ex vivo PD assay: 11b-HSD1 inhibition in abdominal fat and liver tissue after oral administration to mice; settings: mouse C57B1/6, oral, vs vehicle group; for inhibition at 20 mg/kg: 6 hr; for inhibition at 10 mg/kg: 2 hr
T2 construct: the tissues in abdominal fat and the liver were obtained; from tissue; host or cells: abdominal fat and liver of C57Bl/6 mice
T2 sequence (P50172 whole entry): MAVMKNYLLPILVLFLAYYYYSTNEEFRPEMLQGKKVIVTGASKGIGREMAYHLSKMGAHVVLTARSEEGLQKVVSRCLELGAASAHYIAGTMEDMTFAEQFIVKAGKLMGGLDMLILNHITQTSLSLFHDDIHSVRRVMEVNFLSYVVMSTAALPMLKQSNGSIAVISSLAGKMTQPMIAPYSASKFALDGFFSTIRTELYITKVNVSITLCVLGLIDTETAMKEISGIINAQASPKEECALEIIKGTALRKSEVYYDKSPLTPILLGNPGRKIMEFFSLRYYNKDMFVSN
Procedure: The prepared compound was orally administered to a mouse (C57B1/6, orient 8 week old, about 25 g, male) and in a proper amount of time (2 hours, 6 hours, 12 hours, 16 hours, and 24 hours), the mouse was sacrificed and around 30 to 40 mg of the tissues in abdominal fat and the liver were obtained. To 500 ul of a medium (RPMI, gibco) including 1 μM of cortisone (from Sigma Co. Ltd.) and 400 μM of NADPH (from Sigma Co. Ltd) was added the tissue as obtained (30-40 mg), which then reacted in a cell cultivator at 37° C. for 3 hours. After 50 ul of the reacted solution was taken and diluted with DMEM medium at a volume ratio of 1/10, the amount of cortisol being generated was measured by using a cortisol kit (assay designs Co. Ltd., ELISA kit) in accordance with the method set forth in the appended manual. From the results being measured, the degree of the inhibition was obtained by the conversion in comparison with the vehicle group (vehicle: 5% DMSO+5% cremophor in dw, the amount being proportionate to the body weight, i.e., the administration was made at the same volume as the drug being introduced). • Reference material: Published Aug. 15, 2005//JEM vol. 202 no. 4 517-527 The Rockefeller University Press % inhibition={(the amount of cortisol of the vehicle group−the amount of the cortisol of the group with the compound being administered)/(the amount of cortisol of the vehicle group)}×100
According to the above analyzing method, the efficacy of inhibiting 11b-HSD1 of the test compound in the target organ was calculated as % inhibition values, which are shown in Table 2 and Table 3.

Mouse 11b-HSD1 = target: T3, Mouse 11b-HSD1 (Mus musculus, UniProt P50172); test: Inhibition of cortisone-to-cortisol conversion in CHO-K1 cells over-expressing mouse 11b-HSD1 (HTRF cortisol assay); assay type: cell-based; settings: CHO-K1 cells over-expressing mouse 11b-HSD1, 160 nM cortisone, 3 hours, 37° C.
T3 construct: expressed in transfected cells
T3 sequence (P50172 whole entry): as above
Source text: as §1, §2, §3, §4

[1] = abdominal fat, read-out: 11b-HSD1 % inhibition in the fat
[2] = liver, read-out: 11b-HSD1 % inhibition in the liver

T1 sequence (P28845 whole entry): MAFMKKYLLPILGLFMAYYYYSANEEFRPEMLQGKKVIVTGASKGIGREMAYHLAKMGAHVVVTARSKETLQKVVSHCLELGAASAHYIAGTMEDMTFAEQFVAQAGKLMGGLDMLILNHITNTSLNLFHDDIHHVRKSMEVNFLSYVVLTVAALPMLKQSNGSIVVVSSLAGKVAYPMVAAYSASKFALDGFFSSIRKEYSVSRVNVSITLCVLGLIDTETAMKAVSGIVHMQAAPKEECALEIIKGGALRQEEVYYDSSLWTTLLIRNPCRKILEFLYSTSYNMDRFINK

Row | IC50 (Human 11b-HSD1) [nM] | inhibition at 20 mg/kg (11b-HSD1; [1]) [%] | inhibition at 20 mg/kg (11b-HSD1; [2]) [%] | IC50 (Mouse 11b-HSD1) [nM] | inhibition at 10 mg/kg (11b-HSD1; [1]) [%] | inhibition at 10 mg/kg (11b-HSD1; [2]) [%] | SMILES
1 | < 100 | 80 | 65 | < 100 | – | – | NC(=O)[C@]12CC3CC(C1)[C@@H](NC(=O)c1ccc(-c4ccccc4Cl)o1)C(C3)C2 [Example 27, N-(5-carbamoyl-2-adamantyl)-5-(2-chlorophenyl)furan-2-carboxamide]
2 | < 100 | 71 | 47 | < 100 | – | – | NC(=O)[C@]12CC3CC(C1)[C@@H](NC(=O)c1ccc(-c4cccc(Cl)c4)o1)C(C3)C2 [Example 26, N-(5-carbamoyl-2-adamantyl)-5-(3-chlorophenyl)furan-2-carboxamide]
3 | < 100 | 98 | 96 | < 100 | – | – | Cn1c(C(=O)N[C@H]2C3CC4CC2C[C@](C(N)=O)(C4)C3)ccc1-c1ccccc1F [Example 39, N-(5-carbamoyl-2-adamantyl)-5-(2-fluorophenyl)-1-methylpyrrole-2-carboxamide]
4 | < 100 | 70 | 59 | < 100 | – | – | NC(=O)[C@]12CC3CC(C1)[C@@H](NC(=O)c1ccc(-c4ccccc4Cl)s1)C(C3)C2 [Example 43, N-(5-carbamoyl-2-adamantyl)-5-(2-chlorophenyl)thiophene-2-carboxamide]
5 | < 100 | 98 | 98 | < 100 | – | – | Cn1c(C(=O)N[C@H]2C3CC4CC2C[C@](C(N)=O)(C4)C3)ccc1-c1ccccc1Cl [Example 38, N-(5-carbamoyl-2-adamantyl)-5-(2-chlorophenyl)-1-methylpyrrole-2-carboxamide]
6 | < 100 | 85 | 44 | 100 to 500 | 84 | 68 | NC(=O)[C@]12CC3CC(C1)[C@@H](NC(=O)c1ccc(-c4ccc(Cl)cc4)o1)C(C3)C2 [Example 2, N-(5-carbamoyl-2-adamantyl)-5-(4-chlorophenyl)furan-2-carboxamide]
7 | < 100 | 72 | 69 | < 100 | – | – | NC(=O)[C@]12CC3CC(C1)[C@@H](NC(=O)c1ccc(-c4ccccc4F)o1)C(C3)C2 [Example 30, N-(5-carbamoyl-2-adamantyl)-5-(2-fluorophenyl)furan-2-carboxamide]
8 | < 100 | 96 | 92 | < 100 | – | – | Cn1c(C(=O)N[C@H]2C3CC4CC2C[C@](C(N)=O)(C4)C3)ccc1-c1ccccc1 [Example 34, N-(5-carbamoyl-2-adamantyl)-1-methyl-5-phenylpyrrole-2-carboxamide]
9 | > 500 | 57 | 48 | 100 to 500 | 51 | 61 | NC(=O)[C@]12CC3CC(C1)[C@@H](NC(=O)c1ccc4ccccc4[n+]1[O-])C(C3)C2 [Example 64, N-(5-carbamoyl-2-adamantyl)-1-oxidoquinolin-1-ium-2-carboxamide]
10 | < 100 | 65 | 61 | < 100 | 58 | 62 | NC(=O)[C@]12CC3CC(C1)[C@@H](NC(=O)c1ccc4ccccc4n1)C(C3)C2 [Example 18, N-(5-carbamoyl-2-adamantyl)quinoline-2-carboxamide]
11 | < 100 | 83 | 70 | < 100 | 91 | 85 | NC(=O)[C@]12CC3CC(C1)[C@@H](NC(=O)c1ccc(-c4ccccc4)o1)C(C3)C2 [Example 1, N-(5-carbamoyl-2-adamantyl)-5-phenylfuran-2-carboxamide]
12 | < 100 | – | – | < 100 | 51 | 50 | NC(=O)[C@]12CC3CC(C1)[C@@H](NC(=O)c1cccc4cccnc14)C(C3)C2 [Example 19, N-(5-carbamoyl-2-adamantyl)quinoline-8-carboxamide]
13 | < 100 | 63 | 38 | < 100 | – | – | NC(=O)[C@]12CC3CC(C1)[C@@H](NC(=O)c1ccc(-c4ccccc4)s1)C(C3)C2 [Example 40, N-(5-carbamoyl-2-adamantyl)-5-phenylthiophene-2-carboxamide]

Reference: patent US9233957B2, “5-carbamoyl-adamantan-2-yl amide derivatives, pharmaceutically acceptable salts thereof and preparation process thereof” (SK BIOPHARMACEUTICALS CO., LTD., priority 2011, dated 2016)
